Type in all cases: functional
For assay [1], the species on record is Cavia porcellus. The assay can be described thus: Evaluated for antagonist activity on Guinea Pig Tracheal Spiral Strips relative to Kb= 0.1 uM for FPL. The following applies: Trachea.
The species named for assay [2] is Cavia porcellus. The assay can be described thus: Evaluated for antagonist activity on Guinea Pig Tracheal Spiral Strips relative to Kb= 0.1 uM for FPL; Inactive (neither agonist nor antagonist activity observed). The following applies: Trachea.
The species entered for assay [3] is Cavia porcellus. In words: Evaluated for antagonist activity on Guinea Pig Tracheal Spiral Strips relative to Kb= 8.1 uM Vs LTE4. As to conditions: Trachea.
The species entered for assay [4] is Cavia porcellus. In words: Evaluated for antagonist activity on Guinea Pig Tracheal Spiral Strips relative to Kb= 0.1 uM for FPL; Partial agonist. The following applies: Trachea, filed as partial agonist.
Assay [5] is filed under the species Cavia porcellus. The assay can be described thus: Evaluated for antagonist activity on Guinea Pig Tracheal Spiral Strips relative to Kb= 0.1 uM for FPL; partial agonist. As to conditions: Trachea.

Structures are written as SMILES. The source made the active and inactive calls. The rule behind the calls is not given here.

Usually Kb stands for the affinity of an antagonist, worked out from how it opposes an agonist. In turn, `CCCCCCCCCCCC/C=C\[C@@H](SC[C@H](N)C(=O)NCC(=O)O)[C@@H](O)CCC(=O)O` gave an antagonist dissociation constant (Kb) in the assay listed under Cavia porcellus [1] of 10 µM.

`CCCCCCCCCCCC/C=C\[C@H](SC[C@H](N)C(=O)NCC(=O)O)[C@H](O)CCC(N)=O` came in with a Kb in the assay listed under Cavia porcellus [1] of 7.2 µM.

In the case of `CCCCCCCCCCCCCCCCC/C=C\[C@H](SC[C@H](N)C(=O)NCC(=O)O)[C@H](O)CCC(=O)O`, the Kb entry in the assay listed under Cavia porcellus [2] was “inactive”.

Regarding `CCCCCCCCCCCC/C=C\[C@H](SC[C@H](N)C(=O)NCC(N)=O)[C@H](O)CCC(=O)O`, the Kb in the assay listed under Cavia porcellus [1] came out at 3.5 µM.

`CCCCCCCCCCCC/C=C\[C@H](SC[C@H](N)C(=O)O)[C@H](O)CCC(=O)O` showed an antagonist dissociation constant (Kb) in the assay listed under Cavia porcellus [3] of 14 µM.

On to `CCCCCCCCCCCC/C=C\[C@H](SC[C@H](N)C(=O)NCCO)[C@H](O)CCCO`, for which the Kb entry in the assay listed under Cavia porcellus [4] was “Partial agonist”.

For the compound `CCCCCCCCCCCC/C=C\[C@H](SC[C@H](N)C(=O)NCC(=O)O)[C@H](O)CCCO`, the Kb in the assay listed under Cavia porcellus [1] worked out at 14 µM.

`CCCCCCC/C=C\[C@H](SC[C@H](N)C(=O)NCC(=O)O)[C@H](O)CCC(=O)O`: the Kb entry in the assay filed under Cavia porcellus [2] is “inactive”.

Consider `CCCCCCCCCCCC/C=C/[C@H](SC[C@H](N)C(=O)NCC(=O)O)[C@H](O)CCC(=O)O`, for which the Kb in the assay filed under Cavia porcellus [5] amounted to 20 µM.

Regarding `CCCCCCCCCCCC/C=C\[C@@H](SC[C@H](N)C(=O)O)[C@@H](O)CCC(=O)O`, the Kb in the assay listed under Cavia porcellus [1] is 3.4 µM.

As to `CCCCCCCCCCCC/C=C/[C@H](SC[C@H](N)C(=O)NCC(=O)O)[C@@H](O)CCC(=O)O`, the Kb in the assay listed under Cavia porcellus [5] was 40 µM.

In turn, `CCCCCCCCCCCC/C=C\[C@H](SC[C@H](N)C(=O)NCC(=O)O)[C@H](O)CCC(=O)O` displayed a Kb in the assay listed under Cavia porcellus [1] of 6.3 µM.
